Five molecules from patent US20240317686A1, “RORyT MODULATOR, AND PREPARATION METHOD THEREFOR AND APPLICATION THEREOF” (SHANGHAI PHARMACEUTICALS HOLDING CO., LTD., priority 2020, published 2024) can be followed below.

The IC50 is the concentration that inhibits the measured activity by half. A lower IC50 goes with greater potency in that assay.

This assay deals with T1, RORγt (Homo sapiens, UniProt P51449).
T1 construct: Prepare 4×RORgt-LBD in 1× buffer
T1 sequence (P51449 269-508 limits assumed): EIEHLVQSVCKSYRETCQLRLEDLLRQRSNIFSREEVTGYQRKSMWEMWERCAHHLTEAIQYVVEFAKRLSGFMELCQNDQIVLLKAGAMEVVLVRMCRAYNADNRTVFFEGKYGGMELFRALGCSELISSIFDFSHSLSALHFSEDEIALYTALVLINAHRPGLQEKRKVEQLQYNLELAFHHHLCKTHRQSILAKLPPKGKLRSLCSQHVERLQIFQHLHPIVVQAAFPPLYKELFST
Description: Fluorescence resonance energy transfer (FRET) assay of inhibitory activity on RORγt. It counts as biochemical. As to conditions: RORgt-LBD GST with SRC peptide. The procedure: Fluorescence resonance energy transfer (FRET) experiment was performed to assay the inhibitory activity of the compound of the present invention on RORγt.
1) Preparation of DMSO stock solutions of the compounds: All compounds were dissolved in DMSO to prepare 10 mM stock solutions.
2) Compound storage: After the compound was dissolved in DMSO, the solution can be stored in a desiccator at room temperature for three months. For long-term storage, the solution should be put in a −20° C. refrigerator.
3) Preparation of working solution: • a) Positive control compound AZD0284: Starting from 500 µM, the solution was diluted serially by 3-folds with DMSO to obtain a 10-concentration gradient, each concentration with 3 replicate wells. 2 wells were pipetted. The gradiently diluted compound was diluted in a reaction buffer to obtain a 4× working solution (starting from 40 μM, diluted gradiently by 3-folds) of the positive control compound. • b) Compounds to be tested: Starting from 500 μM, the solution was diluted serially by 3-folds with DMSO to obtain a 10-concentration gradient, each concentration with 3 replicate wells. 2 wells were pipetted. The gradiently diluted compound was diluted in a reaction buffer to obtain a 4× working solution ([…], diluted gradiently by 3-folds) of the compounds to be tested. • c) Prepare a 4× negative control (8% DMSO). • d) Centrifuge the plate at 1000 rpm for 1 min.
1) Prepare 4× serially diluted compounds in 1× buffer.
2) Add 5 μl of the 4× serially diluted compound (prepared in step 1) to a 384 assay plate (784075, Greiner).
3) Prepare 4×RORgt-LBD in 1× buffer.
4) Add 5 μl of the 4×RORgt-LBD (prepared in step 3) to the 384 assay plate (prepared in step 2).
5) Incubate the assay plate for 15 min at room temperature, protected from light.
6) Prepare a 2× mixture of SRC, anti-GST Eu and streptavidin-d2 in 1× […].
7) Add 10 μl of the 2× mixture (prepared in step 6) to the 384 assay plate (prepared in step 4).
8) Centrifuge the 384 assay plates at 1000 g for 1 min.
9) Incubate for 3 h at room temperature, protected from light.
10) Read the plate at wavelengths of 665 nm and 615 nm on an Envision 2104 plate reader.
Relative ratio (RR): Calculate the relative ratio (response value at 665 nm/response value at 615 nm-response value in blank background) of each well.
Inhibition rate %=[1−(fluorescence detection value of the compound−fluorescence detection average of the positive compound)/(fluorescence detection average of the negative control−fluorescence detection average of the positive compound)]×100
Calculate the IC50 and dose-response curve of the compound: The IC50 and dose-response curve of the compound were obtained via Graphpad 8.0 by calculating the inhibition rate of the compound and the log value of the compound concentration.
As to `CCS(=O)(=O)c1ccc(CC(=O)Nc2ccc(C(=O)C(C)(C)c3cn(C)cn3)nc2)cc1` [Compound I-72, 2-(4-(ethylsulfonyl)phenyl)-N-(6-(2-methyl-2-(1-methyl-1H-imidazol-4-yl)propionyl)pyridin-3-yl)acetamide], the half-maximal inhibitory concentration (IC50) was 0.05 to 0.1 µM.
To `CCS(=O)(=O)c1ccc(CC(=O)Nc2ccc(C(=O)C(C)c3ccccn3)nc2)cc1` (centres unmarked) [Compound I-73, 2-(4-(ethylsulfonyl)phenyl)-N-(6-(2-(pyridin-2-yl)propanoyl)pyridin-3-yl)acetamide] belongs 0.01 to 0.05 µM; to `CCS(=O)(=O)c1ccc(CC(=O)Nc2ccc(C(=O)C(c3ccccn3)C(C)C)nc2)cc1` (centres unmarked) [Compound I-74], 0.01 to 0.05 µM.
The same measure for `CNS(=O)(=O)c1ccc(CC(=O)Nc2ccc(C(=O)C3(c4ccc(F)cc4)CC(F)(F)C3)nc2)cc1` [Compound I-75, N-(6-(3,3-difluoro-1-(4-fluorophenyl)cyclobutane-1-carbonyl)pyridin-3-yl)-2-(4-(N-methylsulfamoyl)phenyl)acetamide]: 0.001 to 0.01 µM; for `CCS(=O)(=O)c1ccc(CC(=O)Nc2ccc(C(=O)C(C)(C)c3cccc(C(F)(F)F)n3)nc2)cc1` [Compound I-76]: 0.001 to 0.01 µM.
